Assay results taken from ChEMBL document CHEMBL5380835, “Discovery of Clinically Used Octenidine as NRAS Repressor That Effectively Inhibits NRAS-Mutant Melanoma” (J Med Chem, 2023).
Active and inactive are the calls of the source. The calls are words filed in the database; no cut-off is given here.

Columns and labels:
SK-MEL-2 [1] = assay: Cytotoxicity against human SK-MEL-2 cells overexpressing Tet-on NRAS Q61R assessed as cell growth inhibition; assay type: functional, cell-based
SK-MEL-2 [2] = assay: Downregulation of phosphorylated mTOR in human SK-MEL-2 cells expressing NRAS mutant incubated for 48 hrs by Western blot analysis; assay type: functional, cell-based; conditions: dose <= 1.5 µM
SK-MEL-2 [3] = assay: Cytotoxicity against human SK-MEL-2 cells assessed as inhibition of cell viability treated for 72 hrs measured after 24 hrs; assay type: functional, cell-based
[4] = Binding affinity to 3'-FAM-labeled to NRAS RNA G-quadruplex 5'-r(UGUGGGAGGGGCGGGUCUGGG)-3' (unknown origin) assessed as dissociation constant by fluorescence quenching assay
SK-MEL-2 [5] = assay: Cytotoxicity against human SK-MEL-2 cells expressing Tet-on NRAS Q61R assessed as cell growth inhibition in presence of doxycycline; assay type: functional, cell-based
SK-MEL-2 [6] = assay: Antitumor activity against human SK-MEL-2 cells xenografted in BALB/c nude mouse assessed as T/C ratio at 1 mg/kg/day, ip administered for 30 days relative to control; assay type: functional; conditions: time 30 day
SK-MEL-2 [7] = assay: Downregulation of NRAS expression in human SK-MEL-2 cells xenografted in BALB/c nude mouse at 1 mg/kg/day, ip administered for 30 days by IHC analysis; assay type: functional, organism-based; conditions: time 30.0 day
SK-MEL-2 [8] = assay: Antiproliferative activity against human SK-MEL-2 cells assessed as inhibition of cell survival upto 50 uM incubated for 24 to 96 hrs by MTT assay; assay type: functional, cell-based; conditions: time 24-96 hrs
SK-MEL-2 [9] = assay: Downregulation of phosphorylated ERK in human SK-MEL-2 cells expressing NRAS mutant incubated for 48 hrs by Western blot analysis; assay type: functional, cell-based; conditions: dose <= 1.5 µM
[10] = Binding affinity to 5'-FAM-labeled to NRAS RNA G-quadruplex 5'-r(UGUGGGAGGGGCGGGUCUGGG)-3' (unknown origin) assessed as dissociation constant by fluorescence quenching assay
SK-MEL-2 [11] = assay: Antiproliferative activity against human SK-MEL-2 cells assessed as cell growth inhibition incubated for 48 hrs by EdU assay; assay type: functional, cell-based; conditions: SK-MEL-2, 48 h
SK-MEL-2 [12] = assay: Induction of cell cycle arrest in human SK-MEL-2 cells assessed as accumulation at G2/M phase at 1.5 uM measured after 48 hrs by PI staining based analysis; assay type: functional
SK-MEL-2 [13] = assay: Induction of apoptosis in human SK-MEL-2 cells assessed as late apoptotic cells at 1.5 uM measured after 24 hrs by PI/FITC Annexin V staining based flow cytometry; assay type: functional, cell-based
SK-MEL-2 [14] = assay: Cytotoxicity against human SK-MEL-2 cells expressing NRAS mutant assessed as cell growth inhibition upto 50 uM measured for 12 to 96 hrs by MTT assay; assay type: functional, cell-based; conditions: time 12-96 hrs
SK-MEL-2 [15] = assay: Downregulation of phosphorylated mTOR in human SK-MEL-2 cells expressing NRAS mutant at 1.5 uM by Western blot analysis; assay type: functional, cell-based; conditions: time <= 48.0 hrs, TDE = time-dependent effect
SK-MEL-2 [16] = assay: Antitumor activity against human SK-MEL-2 cells xenografted in BALB/c nude mouse assessed as tumor growth inhibition at 1 mg/kg/day, ip administered for 30 days relative to control; assay type: functional; conditions: SK-MEL-2, 720 h, time 30 day, read-out: TGI
SK-MEL-2 [17] = assay: Cytotoxicity against human SK-MEL-2 cells expressing NRAS mutant assessed as cell growth inhibition incubated for 48 hrs by MTT assay; assay type: functional, cell-based; conditions: SK-MEL-2, 48 h
[18] = Disruption of DHX36/NRAS RNA G-quadruplex 5'-r(UGUGGGAGGGGCGGGUCUGGG)-3' (unknown origin) using RNA substrate incubated for 1 hr by ELISA method
HEK293 = assay: Binding affinity to NRAS RNA G-quadruplex 5'-r(UGUGGGAGGGGCGGGUCUGGG)-3' (unknown origin) transfected in HEK293 cells assessed as decrease in NRAS […] upto 1.5 uM incubated for 24 hrs by Dual luciferase reporter assay; assay type: functional, cell-based
SK-MEL-2 [19] = assay: Downregulation of phosphorylated AKT in human SK-MEL-2 cells expressing NRAS mutant incubated for 48 hrs by Western blot analysis; assay type: functional, cell-based; conditions: dose <= 1.5 µM
SK-MEL-2 [20] = assay: Antiproliferative activity against human SK-MEL-2 cells assessed as inhibition of colony formation at 1.5 uM measured after 10 days by crystal violet staining based assay relative to control; assay type: functional; conditions: SK-MEL-2, 240 h, time 10 day
SK-MEL-2 [21] = assay: Cytotoxicity against human SK-MEL-2 cells upto 10 uM in presence of CQ; assay type: functional, cell-based
RNA = assay: Binding affinity to total RNA (unknown origin) by TO displacement assay; assay type: nucleic-acid assay
RNA [UNDEFINED MUTATION] = assay: Binding affinity to NRAS RNA mutant G-quadruplex 5'-r(UGUAAGAGAAGCGAGUCUGAG)-3' (unknown origin) by TO displacement assay; assay type: nucleic-acid assay
SK-MEL-2 [22] = assay: Antitumor activity against human SK-MEL-2 cells xenografted in BALB/c nude mouse assessed as reduction in tumor weight at 1 mg/kg/day, ip administered for 30 days by electronic caliper method; assay type: functional, organism-based; conditions: time 30.0 day
SK-MEL-2 [23] = assay: Cytotoxicity against human SK-MEL-2 cells assessed as inhibition of cell viability treated for 48 hrs measured after 48 hrs; assay type: functional, cell-based; conditions: SK-MEL-2, 48 h
SK-MEL-2 [24] = assay: Suppression of NRAS protein translation in human SK-MEL-2 cells upto 1.5 uM incubated for 48 hrs by Western blot analysis; assay type: functional, cell-based
[25] = Toxicity in BALB/c mouse xenografted with human SK-MEL-2 cells assessed as change in body weight at 1 mg/kg/day, ip administered for 30 days; assay type: organism-based; conditions: in vivo, 720 h, time 30 day
SK-MEL-2 [26] = assay: Downregulation of NRAS protein translation in human SK-MEL-2 cells incubated for 24 hrs by Western blot analysis; assay type: functional, cell-based; conditions: dose <= 1.5 µM
SK-MEL-2 [27] = assay: Downregulation of phosphorylated MEK in human SK-MEL-2 cells expressing NRAS mutant incubated for 48 hrs by Western blot analysis; assay type: functional, cell-based; conditions: dose <= 1.5 µM
SK-MEL-2 [28] = assay: Disruption of DHX36/NRAS RNA G-quadruplex 5'-r(UGUGGGAGGGGCGGGUCUGGG)-3' in human SK-MEL-2 cells at 1.5 uM incubated for 24 hrs by RNA Immunoprecipitation assay; assay type: cell-based
SK-MEL-2 [29] = assay: Cytotoxicity against human SK-MEL-2 cells assessed as cell growth inhibition incubated for 24 hrs by MTT assay; assay type: functional, cell-based; conditions: SK-MEL-2, 24 h
SK-MEL-2 [30] = assay: Cytotoxicity against human SK-MEL-2 cells assessed as inhibition of cell viability treated for 72 hrs measured after 72 hrs; assay type: functional, cell-based; conditions: SK-MEL-2, 72 h
SK-MEL-2 [31] = assay: Antiproliferative activity against human SK-MEL-2 cells assessed as cell growth inhibition incubated for 12 hrs by EdU assay; assay type: functional, cell-based; conditions: SK-MEL-2, 12 h
SK-MEL-2 [32] = assay: Downregulation of KRAS protein level in human SK-MEL-2 cells upto 1.5 uM incubated for 48 hrs by Western blot analysis; assay type: functional, cell-based
SK-MEL-2 [33] = assay: Cytotoxicity against human SK-MEL-2 cells expressing Tet-on NRAS Q61R assessed as cell growth inhibition; assay type: functional, cell-based
SK-MEL-2 [34] = assay: Cytotoxicity against human SK-MEL-2 cells overexpressing Tet-on NRAS Q61R assessed as cell growth inhibition in presence of doxycycline; assay type: functional, cell-based
SK-MEL-2 [35] = assay: Cytotoxicity against human SK-MEL-2 cells assessed as inhibition of cell viability treated for 48 hrs measured after 24 hrs; assay type: functional, cell-based
[36] = Stabilization of NRAS RNA G-quadruplex 5'-r(UGUGGGAGGGGCGGGUCUGGG)-3' (unknown origin) at 10 uM
SK-MEL-2 [37] = assay: Cytotoxicity against human SK-MEL-2 cells upto 10 uM in presence of 3mA; assay type: functional, cell-based
SK-MEL-2 [38] = assay: Downregulation of phosphorylated ERK in human SK-MEL-2 cells expressing NRAS mutant at 1.5 uM by Western blot analysis; assay type: functional, cell-based; conditions: time <= 48.0 hrs, TDE = time-dependent effect
[39] = Toxicity in BALB/c mouse xenografted with human SK-MEL-2 cells assessed as change in viscera pattern at 1 mg/kg/day, ip administered for 30 days by HE staining based analysis; assay type: organism-based; conditions: in vivo, 720 h, time 30 day
SK-MEL-2 [40] = assay: Induction of autophagy in human SK-MEL-2 cells assessed as […] at 1.5 uM measured upto 48 hrs by Western bot analysis; assay type: functional, cell-based
SK-MEL-2 [41] = assay: Antiproliferative activity against human SK-MEL-2 cells assessed as cell growth inhibition incubated for 24 hrs by EdU assay; assay type: functional, cell-based; conditions: SK-MEL-2, 24 h
SK-MEL-2 [42] = assay: Induction of cell cycle arrest in human SK-MEL-2 cells assessed as accumulation at S phase at 1.5 uM measured after 24 hrs by PI staining based analysis; assay type: functional
[43] = Binding affinity to NRAS RNA G-quadruplex 5'-r(UGUGGGAGGGGCGGGUCUGGG)-3' (unknown origin) by TO displacement assay
SK-MEL-2 [44] = assay: Antitumor activity against human SK-MEL-2 cells xenografted in BALB/c nude mouse assessed as tumor growth inhibition at 1 mg/kg/day, ip by electronic caliper method; assay type: functional, organism-based; conditions: time 30.0 day, TDE = time-dependent effect
[45] = Binding affinity to NRAS RNA G-quadruplex 5'-r(UGUGGGAGGGGCGGGUCUGGG)-3' (unknown origin) assessed as decrease in TO fluorescence at 0.25 uM by TO displacement assay
DNA = assay: Binding affinity to total DNA (unknown origin) by TO displacement assay; assay type: nucleic-acid assay

## CCCCCCCCN=c1ccn(CCCCCCCCCCn2ccc(=NCCCCCCCC)cc2)cc1.Cl.Cl [OCTENIDINE HYDROCHLORIDE]
SK-MEL-2 [1]
  Activity: Active
SK-MEL-2 [2]
  Activity: Dose-Dependent Effect
SK-MEL-2 [3]
  IC50: 480 nM
[4]
  Kd: 230 nM
SK-MEL-2 [5]
  IC50: 12400 nM
SK-MEL-2 [6]
  T/C: 38.5%
SK-MEL-2 [7]
  Activity: Active
SK-MEL-2 [8]
  inhibition: Active
SK-MEL-2 [9]
  Activity: Dose-Dependent Effect
[10]
  Kd: 490 nM
SK-MEL-2 [11]
  IC50: 490 nM
SK-MEL-2 [12]
  Activity: Active
SK-MEL-2 [13]
  Activity: Active
SK-MEL-2 [14]
  inhibition: Active
SK-MEL-2 [15]
  Activity: Tde
SK-MEL-2 [16]
  inhibition in vivo at 1 mg/kg/day: 52.4%
SK-MEL-2 [17]
  IC50: 1340 nM
[18]
  IC50: 2400 nM
HEK293
  Activity: Active
SK-MEL-2 [19]
  Activity: Dose-Dependent Effect
SK-MEL-2 [20]
  inhibition at 1.5 µM: 100%
SK-MEL-2 [21]
  Activity: Active
RNA
  Activity: Active
RNA [UNDEFINED MUTATION]
  Activity: inactive
SK-MEL-2 [22]
  Activity: Active
SK-MEL-2 [23]
  IC50: 2100 nM
SK-MEL-2 [24]
  Activity: Active
[25]
  Activity: Non-Toxic
SK-MEL-2 [26]
  Activity: Dose-Dependent Effect
SK-MEL-2 [27]
  Activity: Dose-Dependent Effect
SK-MEL-2 [28]
  Activity: Active
SK-MEL-2 [29]
  IC50: 2340 nM
SK-MEL-2 [30]
  IC50: 460 nM
SK-MEL-2 [31]
  IC50: 2050 nM
SK-MEL-2 [32]
  Activity: inactive
SK-MEL-2 [33]
  IC50: 6300 nM
SK-MEL-2 [34]
  Activity: Active
SK-MEL-2 [35]
  IC50: 2110 nM
[36]
  Activity: inactive
SK-MEL-2 [37]
  Activity: Active
SK-MEL-2 [38]
  Activity: Tde
[39]
  Activity: Non-Toxic
SK-MEL-2 [40]
  Activity: Active
SK-MEL-2 [41]
  IC50: 1080 nM
SK-MEL-2 [42]
  Activity: Active
[43]
  EC50: 1600 nM
SK-MEL-2 [44]
  Activity: Tde
[45]
  Activity: Active
DNA
  Activity: inactive
